{"source": "patent US11840686B2", "about": "“Modulation of prekallikrein (PKK) expression” (Ionis Pharmaceuticals, Inc., priority 2013, dated 2023)", "type_in_all_cases": "cell-based", "key": {"human PKK mRNA [1]": {"tested_on": "human PKK mRNA", "test": "Antisense inhibition of human PKK mRNA in HepaRG cells, 5,000 nM (Example 2)", "method_in_brief": "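Percent inhibition of PKK mRNA is reported relative to untreated cells, after adjustment for total RNA by RIBOGREEN. Gapmers of 16–20 nucleosides with 2′-MOE wings were delivered at 5,000 nM by electroporation into HepaRG cells and left for roughly 24 hours before RNA isolation.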"}, "human PKK mRNA [2]": {"tested_on": "human PKK mRNA", "test": "Dose-dependent antisense inhibition of human PKK in HepaRG cells, 0.19-5.00 uM (Example 5)", "conditions": "HepaRG cells; for percent inhibition of PKK at 0.19 μM / percent inhibition of PKK at 0.56 μM / percent inhibition of PKK at 1.67 μM / percent inhibition of PKK at 5.00 μM: electroporation, approximately 16 hours", "experimental": "Cells were plated at a density of 20,000 cells per well and transfected using electroporation with 0.19 μM, 0.56 μM, 1.67 μM, and 5.00 μM concentrations of antisense oligonucleotide. After a treatment period of approximately 16 hours, RNA was isolated from the cells and PKK mRNA levels were measured by quantitative real-time PCR. Human PKK primer probe set RTS3454 was used to measure mRNA levels. PKK mRNA levels were adjusted according to total RNA content, as measured by RIBOGREEN®. The antisense oligonucleotides were tested in a series of experiments that had similar culture conditions.\nThe half maximal inhibitory concentration (IC50) of each oligonucleotide is also presented."}, "human PKK mRNA [3]": {"tested_on": "human PKK mRNA", "test": "Antisense inhibition of human PKK mRNA in HepaRG cells, 1,000 nM, MOE/deoxy/cEt oligonucleotides (Example 3)", "method_in_brief": "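HepaRG cells at 20,000 per well electroporated with 1,000 nM 16-mer MOE/cEt/deoxy gapmers (phosphorothioate, 5-methylcytosine). After about 24 h, PKK mRNA measured by qRT-PCR with primer probe set RTS3454, normalized to RIBOGREEN total RNA. Reported as percent inhibition versus untreated cells.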"}, "[4]": {"conditions": "4 point dose response, Table 39"}, "[5]": {"conditions": "Table 20, HepaRG cells, electroporation with 1,000 nM antisense oligonucleotide, approximately 24 hours, PKK mRNA by RT-PCR (RTS3454), relative to untreated control cells"}, "[6]": {"conditions": "Table 22 experiment, HepaRG cells, electroporation with 1,000 nM antisense oligonucleotide, approx. 24 hours, PKK mRNA by RT-PCR (RTS3454), relative to untreated control cells"}, "[7]": {"conditions": "PKK mRNA, HepaRG cells, 1,000 nM antisense oligonucleotide, Table 31"}, "[8]": {"conditions": "Table 19, HepaRG cells, electroporation with 1,000 nM antisense oligonucleotide, approximately 24 hours, PKK mRNA by RT-PCR (RTS3454), relative to untreated control cells"}}, "note": "Strand notation (5' to 3'): a small letter for the sugar, then the base; units joined by * are phosphorothioate-linked, units joined directly phosphodiester-linked; [ ] holds rarer units or linkages, { } end groups; capitals alone tell only the bases. e = 2'-O-(2-methoxyethyl) (MOE); k = constrained ethyl (cEt); [5mC] = 5-methylcytosine; d = 2'-deoxy (DNA)"}
{"substance": "547453 (antisense eT*e[5mC]*eA*eT*eG*dA*dT*dT*d[5mC]*d[5mC]*d[5mC]*dT*dT*d[5mC]*dT*eG*eA*eG*eA*e[5mC]) [compound 547453]", "values": [{"measurement": "% inhibition", "setting": "human PKK mRNA [1]; Table 9 experiment, HepaRG cells, 20,000 cells per well, electroporation with 5,000 nM antisense oligonucleotide, approx. 24 hours, PKK mRNA by RT-PCR (RTS3454), relative to untreated control cells", "result": 81, "unit": "%"}, {"measurement": "% inhibition", "setting": "human PKK mRNA [1]; Table 10 experiment, HepaRG cells, 20,000 cells per well, electroporation with 5,000 nM antisense oligonucleotide, approx. 24 hours, PKK mRNA by RT-PCR (RTS3454), relative to untreated control cells", "result": 81, "unit": "%"}, {"measurement": "percent inhibition of PKK at 0.19 μM", "setting": "human PKK mRNA [2]; Table 39", "result": 25, "unit": "%"}, {"measurement": "percent inhibition of PKK at 0.56 μM", "setting": "human PKK mRNA [2]; Table 39", "result": 40, "unit": "%"}, {"measurement": "percent inhibition of PKK at 1.67 μM", "setting": "human PKK mRNA [2]; Table 39", "result": 54, "unit": "%"}, {"measurement": "percent inhibition of PKK at 5.00 μM", "setting": "human PKK mRNA [2]; Table 39", "result": 92, "unit": "%"}, {"measurement": "IC50", "setting": "human PKK mRNA [2]; [4]", "result": 800, "unit": "nM"}]}
{"substance": "546889 (eG*eT*e[5mC]*e[5mC]*eT*dA*dT*dG*dT*d[5mC]*dA*d[5mC]*dT*dG*dT*eA*e[5mC]*e[5mC]*eT*eA; antisense) [compound 546889]", "values": [{"measurement": "% inhibition", "setting": "human PKK mRNA [1]; human PKK mRNA, HepaRG cells, 5-10-5 motif oligonucleotides targeting SEQ ID NO: 1 and 10", "result": 93, "unit": "%"}, {"measurement": "percent inhibition of PKK at 0.19 μM", "setting": "human PKK mRNA [2]; Table 35", "result": 23, "unit": "%"}, {"measurement": "percent inhibition of PKK at 0.56 μM", "setting": "human PKK mRNA [2]; Table 35", "result": 54, "unit": "%"}, {"measurement": "percent inhibition of PKK at 1.67 μM", "setting": "human PKK mRNA [2]; Table 35", "result": 78, "unit": "%"}, {"measurement": "percent inhibition of PKK at 5.00 μM", "setting": "human PKK mRNA [2]; Table 35", "result": 91, "unit": "%"}, {"measurement": "IC50", "setting": "human PKK mRNA [2]; 4 point dose response, Table 35", "result": 600, "unit": "nM"}, {"measurement": "percent inhibition of PKK mRNA, 0.19 μM", "setting": "human PKK mRNA [2]; 0.19 μM antisense oligonucleotide", "result": 25, "unit": "%"}, {"measurement": "percent inhibition of PKK mRNA, 0.56 μM", "setting": "human PKK mRNA [2]; 0.56 μM antisense oligonucleotide", "result": 9, "unit": "%"}, {"measurement": "percent inhibition of PKK mRNA, 1.67 μM", "setting": "human PKK mRNA [2]; 1.67 μM antisense oligonucleotide", "result": 73, "unit": "%"}, {"measurement": "percent inhibition of PKK mRNA, 5.00 μM", "setting": "human PKK mRNA [2]; 5.00 μM antisense oligonucleotide", "result": 92, "unit": "%"}, {"measurement": "IC50", "setting": "human PKK mRNA [2]; 0.19-5.00 μM", "result": 1400, "unit": "nM"}]}
{"substance": "546835 (eT*eA*eA*e[5mC]*eT*d[5mC]*dT*dA*dA*d[5mC]*dA*dG*dT*dA*dT*e[5mC]*eA*e[5mC]*eT*eG; antisense) [compound 546835]", "values": [{"measurement": "% inhibition", "setting": "human PKK mRNA [1]; Table 13, human PKK mRNA in HepaRG cells, 5-10-5 gapmers", "result": 86, "unit": "%"}, {"measurement": "percent inhibition of PKK at 0.19 μM", "setting": "human PKK mRNA [2]; Table 39", "result": 9, "unit": "%"}, {"measurement": "percent inhibition of PKK at 0.56 μM", "setting": "human PKK mRNA [2]; Table 39", "result": 35, "unit": "%"}, {"measurement": "percent inhibition of PKK at 1.67 μM", "setting": "human PKK mRNA [2]; Table 39", "result": 68, "unit": "%"}, {"measurement": "percent inhibition of PKK at 5.00 μM", "setting": "human PKK mRNA [2]; Table 39", "result": 93, "unit": "%"}, {"measurement": "IC50", "setting": "human PKK mRNA [2]; [4]", "result": 900, "unit": "nM"}]}
{"substance": "546214 (antisense eG*eA*eG*eA*eA*d[5mC]*d[5mC]*d[5mC]*dT*dG*dG*d[5mC]*dA*dA*d[5mC]*eA*eT*e[5mC]*e[5mC]*eA) [compound 546214]", "values": [{"measurement": "% inhibition", "setting": "human PKK mRNA [1]; Table 7, HepaRG cells, electroporation with 5,000 nM antisense oligonucleotide, approx. 24 hours, PKK mRNA by RT-PCR (RTS3454), relative to untreated control cells", "result": 88, "unit": "%"}, {"measurement": "percent inhibition of PKK at 0.19 μM", "setting": "human PKK mRNA [2]; Table 37", "result": 0, "unit": "%"}, {"measurement": "percent inhibition of PKK at 0.56 μM", "setting": "human PKK mRNA [2]; Table 37", "result": 0, "unit": "%"}, {"measurement": "percent inhibition of PKK at 1.67 μM", "setting": "human PKK mRNA [2]; Table 37", "result": 68, "unit": "%"}, {"measurement": "percent inhibition of PKK at 5.00 μM", "setting": "human PKK mRNA [2]; Table 37", "result": 85, "unit": "%"}, {"measurement": "IC50", "setting": "human PKK mRNA [2]; 4 point dose response, Table 37", "result": 1300, "unit": "nM"}]}
{"substance": "547874 (antisense eA*e[5mC]*kT*dG*d[5mC]*dT*dA*dA*d[5mC]*d[5mC]*dT*dT*dA*kG*kA*e[5mC]) [compound 547874]", "values": [{"measurement": "% inhibition", "setting": "human PKK mRNA [3]; [5]", "result": 70, "unit": "%"}, {"measurement": "% inhibition", "setting": "human PKK mRNA [3]; [6]", "result": 60, "unit": "%"}]}
{"substance": "548658 (antisense eG*eA*kA*dG*dT*dT*d[5mC]*d[5mC]*dT*dG*dT*dG*dT*k[5mC]*kT*eT) [compound 548658]", "values": [{"measurement": "% inhibition", "setting": "human PKK mRNA [3]; [7]", "result": 11, "unit": "%"}]}
{"substance": "547961 (eT*eT*kG*d[5mC]*dA*dG*dG*dT*dT*dA*dA*dA*dA*kG*kG*e[5mC]; antisense) [compound 547961]", "values": [{"measurement": "% inhibition", "setting": "human PKK mRNA [3]; HepaRG cells, electroporation with 1,000 nM antisense oligonucleotide, approximately 24 hours, primer probe set RTS3454, relative to untreated control cells, experiment of Table 23", "result": 5, "unit": "%"}]}
{"substance": "548678 (antisense eG*eA*kG*dT*dT*dA*d[5mC]*d[5mC]*dT*dT*dA*d[5mC]*dA*kA*kG*e[5mC]) [compound 548678]", "values": [{"measurement": "% inhibition", "setting": "human PKK mRNA [3]; [7]", "result": 22, "unit": "%"}]}
{"substance": "548112 (antisense eG*eT*kG*dA*d[5mC]*dT*dG*d[5mC]*dA*dT*d[5mC]*dT*dG*kA*kG*e[5mC]) [compound 548112]", "values": [{"measurement": "% inhibition", "setting": "human PKK mRNA [3]; [8]", "result": 23, "unit": "%"}]}
{"substance": "548380 (eG*e[5mC]*k[5mC]*d[5mC]*dA*dG*dT*dT*dT*dT*dG*dG*d[5mC]*kA*kA*e[5mC]; antisense) [compound 548380]", "values": [{"measurement": "% inhibition", "setting": "human PKK mRNA [3]; Table 27, HepaRG cells, 1,000 nM antisense oligonucleotide, human PKK mRNA", "result": 7, "unit": "%"}]}
{"substance": "548617 (antisense eG*eA*kT*dT*dG*dG*dT*dG*dG*d[5mC]*dG*dG*dG*kA*kT*e[5mC]) [compound 548617]", "values": [{"measurement": "% inhibition", "setting": "human PKK mRNA [3]; [7]", "result": 44, "unit": "%"}]}
{"substance": "547902 (eA*e[5mC]*kT*dG*dT*dA*d[5mC]*dT*dT*dT*dA*dA*dT*kA*kG*eG; antisense) [compound 547902]", "values": [{"measurement": "% inhibition", "setting": "human PKK mRNA [3]; [5]", "result": 20, "unit": "%"}, {"measurement": "% inhibition", "setting": "human PKK mRNA [3]; [6]", "result": 33, "unit": "%"}]}
{"substance": "548626 (antisense eG*e[5mC]*kA*dG*dT*dA*dT*dG*dT*dT*d[5mC]*dA*dA*kT*k[5mC]*e[5mC]) [compound 548626]", "values": [{"measurement": "% inhibition", "setting": "human PKK mRNA [3]; [7]", "result": 36, "unit": "%"}]}
{"substance": "548580 (e[5mC]*e[5mC]*kA*dG*dA*dG*d[5mC]*d[5mC]*dT*dT*dG*dA*dT*k[5mC]*kA*eG; antisense) [compound 548580]", "values": [{"measurement": "% inhibition", "setting": "human PKK mRNA [3]; HepaRG cells, 1,000 nM antisense oligonucleotide, Table 29", "result": 36, "unit": "%"}]}
{"substance": "548097 (antisense eT*eG*k[5mC]*dT*d[5mC]*d[5mC]*d[5mC]*dT*dG*d[5mC]*dG*dG*dG*k[5mC]*kA*e[5mC]) [compound 548097]", "values": [{"measurement": "% inhibition", "setting": "human PKK mRNA [3]; [8]", "result": 2, "unit": "%"}]}
